Data on two compounds can be found in patent US6509377B1, “Use of a 2-hydroxy-4-trifluoromethylbenzoic acid derivatives as inhibitors of the activation of the nuclear transcription factor NF-κB” (J. Uriach & Cia, S.A., priority 1999, dated 2003).

Data set [1] relates to human peripheral blood mononuclear cells (PBMC). As to the kind of experiment: Cell viability controls of human PBMC (MTT assay). Format: cell-based. The note with it: Example 3, HTB 1-3 mM with LPS, 3 mM without LPS. As for the experimental part: Prior to the various treatments, cell viability was determined by the Trypan Blue exclusion assay. Cells were diluted at a concentration of 2.5 million/ml with RPMI medium containing 10% fetal calf serum and were incubated (37° C., 5% CO2) 1 hour in 6-well plates (2 ml/well, 5 million PBMC) without adding any drug (control) or adding HTB (1-3 mM). Next, cells were incubated for further 10 minutes in the presence of 10 μg/ml E.coli lipopolysaccharide (LPS, 026:B6 serotype; Sigma). After incubation, a sample (100 μl) was taken in order to carry out a cell count as well as cell viability controls by measuring the ability of mitochondrial dehydrogenases to convert the soluble tetrazolium salt, MTT the insoluble product formazan (MTT assay). Cells were also incubated with HTB (3 mM) in the absence of LPS. In all cases, cell viability was equal to or higher than 95%.
Cells were diluted at a concentration of 2.5 million/ml with RPMI medium containing 10% fetal calf serum and were incubated (37° C., 5% CO2) 19 hours in 6-well plates (2 ml/well, 5 million PBMC). Incubations were carried out in the presence of 10 μg/ml E.coli lipopolysaccharide (LPS, 026:B6 serotype; Sigma) without adding any drug (control) or adding Triflusal or HTB (0.1-5 mM). Prior to incubations, cell viability controls were performed using the Trypan Blue exclusion assay. […]

Data set [2] is described as follows: Cell viability of U-937 cells (EZ4U). Particulars: human, U-937 histiocytic lymphoma cells, read-out: Percentage of cell viability. Format: cell-based. The procedure: (§1) Several cell lines obtained from the American Type Culture Collection (ATCC) were cultured at 37° C. and under a 5% CO2 atmosphere. Each cell line was grown in an appropriate culture medium and within the exponential phase (Table I).
(§2) For the cell viability studies 24-well plates were used, where 0.5×10^6 cells/ml (for 24-hour studies), 0.25×10^6 cells/ml (for 48-hour studies) or 0.125×10^6 cells/ml (for 72-hour studies) were incubated. Next, different concentrations of HTB (1-3 mM) were added and cells were incubated for different time periods (37° C., 5% CO2). After incubation, the supernatant from each well was extracted, and cells were washed with culture medium without fetal calf serum. Then, the supernatant was extracted and 200 μl culture medium without fetal calf serum were added to each well. In addition, 20 μl substrate were added to determine cell viability. This method is based on the ability of viable cells to transform the colourless substrate into a coloured substance that is excreted to the supernatant (EZ4U, Biomedica Gmbh.). After incubating cells for 1 hour at 37° C. and 5% CO2, 200 μl supernatant were collected and the absorbance was measured at 450 nm.
(§3) The absorbance was also determined at 620 nm as a measure of the existing non-specific value.

The test system of a further data set is MCP-1. As to the kind of experiment: MCP-1 expression induced by immune complexes in THP-1 cells (ELISA). The note with it: 100 μg/ml A-IgG. It counts as cell-based, human. The procedure: Human monocytic THP-1 cells (3×10^6 cells/well) were cultured in plastic dishes in RPMI 1640 culture medium supplemented with penicillin (100 U/ml), streptomycin (100 μg/ml), gentamycin (50 μg/ml), glutamine (2 mM) and 2% heat-inactivated fetal calf serum. Cells were cultured in the presence of HTB (2 and 4 mM) or vehicle and were activated with 100 μg/ml immune complex aggregates (A-IgG). The production of soluble MCP-1 was determined by ELISA using a commercially available kit (R&D Systems Inc.; Minneapolis, Minn.). The detection limit of the system was 5 pg/ml.

A short description of data set [3]: Cell viability of COLO 205 cells (EZ4U). Format: cell-based. The note with it: human, COLO 205 cells (colon adenocarcinoma), read-out: Percentage of cell viability. The procedure: as §1, §2, §3
The test system of another data set is COX-2. Briefly: COX-2 expression in rat inflammatory exudate cells (carrageenan air pouch). Format: in vivo. Particulars: oral 3-30 mg/kg, 6 h. As for the experimental part:
Lewis rats (175-200 g) were used in this study. Rats were randomly distributed in groups of 5 animals. An, air pouch was produced by subcutaneous injection of 20 ml of sterile air into the intrascapular area of animals in each group. Every two days, 10 ml of air were injected again into the cavity to keep the space open. Seven days after the first injection of air, 2 ml of a 1% carrageenan solution was injected into the air pouch in all groups to produce an inflammatory reaction. Test compound was administered orally 30 min before carrageenan administration. The animals were killed 6 h later and the volume of exudate was measured. The type and number of cells present were determined using standard Wright-Giemsa staining and a Coulter Counter cell counter, respectively. The exudate was centrifuged at 400 g at 4° C. for 7 min and PGE2 concentration was determined by enzyme-immunoassay (Amershan-Biotrak RPN222). The cell pellet was resuspended in 2 ml cold 0.85% NaCl. To eliminate red cell contamination, cells were subjected to a selective cellular lysis by the addition of 6 ml cold water for 20 seconds. The isotonicity of the cellular suspension was restored by the addition of 2 ml 3.5% NaCl. […]

For the compound `O=C(O)c1ccc(C(F)(F)F)cc1O` [HTB, 2-hydroxy-4-trifluoromethylbenzoic acid], in data set [1], the cell viability is given as no less than 95%. In addition, the viability at 0 h, 1 mM in data set [2] (1 mM HTB, 0 hours) amounted to 100%; in data set [3] (1 mM HTB, 0 hours), 100%. Also, the viability at 2 h, 1 mM in data set [2] (1 mM HTB, 2 hours) was determined as 100%; in data set [3] (1 mM HTB, 2 hours) it was 100%. For the same compound, the viability at 5 h, 1 mM stood at 98.8% in data set [2] (1 mM HTB, 5 hours) and 87.2% in data set [3] (1 mM HTB, 5 hours). Moreover, the viability at 24 h, 1 mM in data set [2] (1 mM HTB, 24 hours) turned out to be 74.4%; in data set [3] (1 mM HTB, 24 hours) it was 64.8%. The viability at 48 h, 1 mM in data set [2] (1 mM HTB, 48 hours) is 39.6%; in data set [3] (1 mM HTB, 48 hours), 37.4%. Moreover, the viability at 72 h, 1 mM was 4.8% in data set [2] (1 mM HTB, 72 hours) and 7.6% in data set [3] (1 mM HTB, 72 hours). For the same compound, the viability at 0 h, 3 mM was found to be 100% in data set [2] (3 mM HTB, 0 hours) and 100% in data set [3] (3 mM HTB, 0 hours). For the same compound, the viability at 2 h, 3 mM in data set [2] (3 mM HTB, 2 hours) was 96.1%; in data set [3] (3 mM HTB, 2 hours), 94.5%. The viability at 5 h, 3 mM in data set [2] (3 mM HTB, 5 hours) was determined as 92.6%; in data set [3] (3 mM HTB, 5 hours), 69.2%. The viability at 24 h, 3 mM in data set [2] (3 mM HTB, 24 hours) came to 13.9%; in data set [3] (3 mM HTB, 24 hours) it was 39.6%. The viability at 48 h, 3 mM in data set [2] (3 mM HTB, 48 hours) was 7.5%; in data set [3] (3 mM HTB, 48 hours), 14.3%. The “inhibition of MCP-1 expression induced by immune complexes” value in the data set on MCP-1 (2 mM) and in the data set with MCP-1 (4 mM) was “complete inhibition” each time.

For the compound `CC(=O)Oc1cc(C(F)(F)F)ccc1C(=O)O` [triflusal, 2-Acetyloxy-4-trifluoromethylbenzoic acid, reference compound], the “inhibition of COX-2 expression in the cells present in the exudate” value in the data set on COX-2 is listed as “dose-dependently inhibits”.

The cell viability is a per cent measure of how many cells are alive, often set against a control. The term viability denotes a per cent measure of how many cells are alive, often set against a control.
